Here are results for one molecule from US20230338463A1, “ICD PEPTIDE AND USE THEREOF FOR HAVING CYTOTOXIC ACTIVITY ON CANCER CELLS” (NATIONAL TSING HUA UNIVERSITY, priority 2022, published 2023).

Non-standard residues stand in square brackets, D forms with d. Residues, ends and D or L forms follow the SMILES beside them. 2Nal = N[C@@H](Cc1ccc2ccccc2c1)C(=O)O

Experiment [1] deals with MN-11 cells. Description: Luciferin-luciferase extracellular ATP, MN-11. The settings on record: MN-11, 2 × IC50, peak at 0.5-hour. Format: cell-based, murine. On the procedure:
On the other hand, MN-11 cells were seeded at the density of 25,000 cells/ well in the 96 well plate and allowed to adhere for 24 hours. Cells were treated with Nal-P-113, Bip-P-113 and Dip-P-113 at 2× IC50 for 0.5, 1, 1.5, and 2 hours. Untreated cells served as the control group. After being treated for different time points (0.5, 1, 1.5, and 2 hours), the supernatant of cells was analyzed using the ENLITEN ATP luciferase assay kit (Promega, Madison, WI, USA). The level of the extracellular ATP chemiluminescence was measured at 560 nm using the Wallac VICTOR 3 Multilabel plate reader (PerkinElmer, Shelton, CT, USA).
ATP release from MN-11 cells were measured using the luciferin-luciferase assay after peptide (2 × IC50) treatment (FIGS. 6B-6D). Nal-P-113 and Dip-P-113 reached the relative light unit (~ 11,000 RLU) peak at 0.5-hour, and Bip-P-113 reached the highest peak at 1 hour (~ 13,000 RLU).

In experiment [2] the test system is MN-11 cells. The experiment is described as follows: DCFDA cellular ROS detection, MN-11. Format: cell-based, murine. The following applies: MN-11, 2 × IC50, 2-hour treatment. On the procedure: However, MN-11 cells were seeded at the density of 25,000 cells/well in the 96-well black plate and allowed to adhere for 24 hours. Cells were washed with a 100 µL/well of PBS to remove the RPMI 1640 medium, and incubated with 100 µL of the 25 µM DCFDA solution for 45 minutes at 37° C. in the dark condition. 100 µL/ well of PBS buffer was washed again for the removal of 25 µM DCFDA solution. The MN-11 cells were treated with Nal-P-113, Bip-P-113 and Dip-P-113 at 2× IC50 for 2 hours. Cells incubated with DMEM without phenol red was used as negative control, and the positive control was tertbutyl hydroperoxide (TBHP) diluted in the 1x Supplemented Buffer. The fluorescence intensity of cellular ROS was determined to an excitation wavelength of 485 nm and an emission wavelength of 535 nm on the Wallac VICTOR 3 Multilabel plate reader (PerkinElmer, Shelton, CT, USA).

Experiment [3] concerns MN-11 cells. Description: Tumor re-challenge of cured animals. Format: in vivo, C57BL/6 mice. The settings on record: n=5. As for the experimental part:
Tumor size was measured every 2 days using a caliper, and the volume of tumors was calculated using the following formula: Tumor size (mm^3) = 0.5×(width^2×length). The survival rates of tumor-bearing mice were observed and recorded

The next experiment concerns PC 9 cells. The experiment is described as follows: Extracellular cytochrome c ELISA, PC 9. In kind it is cell-based, human. The following applies: PC 9, 2-fold IC50, time not stated. As for the experimental part:
The cytochrome c release was a part of mitochondrial damage-associated molecular patterns, therefore the amount of cytochrome c released into supernatant were measured by cytochrome c ELISA assay.
The cells were washed three times using PBS solution to remove all serum components and 1× 10^6 cells/ mL was solubilised in ice-cold 0.5% Triton-X 100-PBS solution at 2-8° C. for 10 minutes. Then, the speed of 16,000 xg was applied to centrifuge the extract for another 10 minutes, and serially dilute the aliquot of supernatant collected with Calibrator Diluent RD5-18 as described in the manufacturer’s protocol.
Quantifying the volume of cytochrome c released and the results were presented in FIGS. 7A-7C via ELISA assay for 0.5, 1, 1.5, and 2 hours. SEQ ID NO:4 group induced a relatively high amount of cytochrome c compared to SEQ ID NO:3 group and SEQ ID NO: 5 group. The cytochrome c release for SEQ ID NO:4 group was double the amount of SEQ ID NO:3 group and SEQ ID NO: 5 group. The trend of cytochrome c release in SEQ ID NO:4 and SEQ ID NO:3 treated PC 9 cells were escalating from 30 minutes to 4 hours, in contrast the SEQ ID NO: 5 group has fluctuating trend. […] The highest amount of cytochrome c detected in the supernatant for SEQ ID NO:3 and SEQ ID NO: 5 were around 3.5 ng/mL and lower than 2 ng/mL for the least.
In general terms: ELISA stands for enzyme-linked immunosorbent assay.

For experiment [4], the system named is MN-11 cells. The experiment is described as follows: Extracellular HMGB1 Western blot, MN-11. Format: cell-based, murine. As for the experimental part:
On the other hand, The MN-11 cells were seeded at the density of 1 × 10^5 cells/well and left to adhere for 24 hrs. Cells were treated with Nal-P-113, Bip-P-113 and Dip-P-113 at 2× IC50 for 1 and 4 hours. After treatment of the peptides, the supernatant and lysate of the cells were collected separately for further experiments. The supernatant was collected after centrifugation at the speed of 1,400 ×g. The cell lysate was washed twice using PBS before the sonication of the pellet using bio-disruptor, and the disrupted pellet was centrifuged again for 10 minutes under 14,000 rpm at 4° C. The concentration of the samples was quantified using the Bradford assay. Both supernatants and cell lysate were loaded and run on the sodium dodecyl sulfate polyacrylamide gel electrophoresis (SDS-PAGE), and then electro transferred to a polyvinylidene difluoride (PVDF) membrane (Merck-Millipore, Burlington, Massachusetts, United States) in electro-blot system, 30 V, 400 mA, for 75 mins. The membrane was incubated in blocking buffer (5% skim milk, TBST buffer) for 1 hour in room temperature and washed in TBST buffer three times. […] The secondary antibody of rabbit (diluted in 1: 10000) was incubated following the rinsing with PBST three times for 2 hours the next day in the room temperature before being developed using luminol reagent and imaged by a detected system (ImageQuant LAS 4000 mini).
Background: In western blotting, separated proteins are transferred to a membrane and probed.

On to `CC(=O)N[C@@H](C)C(=O)N[C@@H](CCCCN)C(=O)N[C@@H](CCCNC(=N)N)C(=O)N[C@@H](Cc1ccc2ccccc2c1)C(=O)N[C@@H](Cc1ccc2ccccc2c1)C(=O)NCC(=O)N[C@@H](Cc1ccc(O)cc1)C(=O)N[C@@H](CCCCN)C(=O)N[C@@H](CCCNC(=N)N)C(=O)N[C@@H](CCCCN)C(=O)N[C@@H](Cc1ccccc1)C(=O)N[C@@H](Cc1ccc2ccccc2c1)C(N)=O` [SEQ ID NO:3, Ac-AKR Nal Nal GYKRKFNal-NH2] (Ac-AKR[2Nal][2Nal]GYKRKF[2Nal]-NH2), for which, in the experiment with MN-11 cells [1], the “ATP release, relative light unit peak” value was ~ 11,000 RLU. For the same molecule, the “fluorescence intensity of cellular ROS (ROS production)” value with MN-11 cells [2] was “did not change”. The “protection from MN-11 cells re-challenge” value with MN-11 cells [3] (animals with complete regression, s.c. re-challenge) is “All animals were protected”. In addition, the survival after re-challenge entry in the experiment with MN-11 cells [3] (until the end of the experiments (55 days)) is “stayed alive”. Moreover, the “highest amount of cytochrome c detected in the supernatant” value in the experiment on PC 9 cells is “around 3.5 ng/mL”. Besides, the HMGB1 in supernatant entry in the experiment with MN-11 cells [4] (MN-11, 2× IC50, 1 hour) is “observed in the supernatant”; in the experiment with MN-11 cells [4] (MN-11, 2× IC50, 4 hours), “still a significant concentration”.
